Test results taken from PubChem BioAssay AID720609 (Broad Institute, 2013).

Test system: HeLa viability, CellTiter-Glo ATP luminescence, 8-48 h
Assay: HeLa cell viability over time, late-stage follow-up, mechanism study for HRAS target identification, CellTiter-Glo ATP luminescence, 8-48 h, dry powder (AID 720609)

| SMILES | AC50 (measured here: AC50 at 8 h) [nM] | AC50 (measured here: AC50 at 24 h) [nM] | AC50 (measured here: AC50 at 48 h) [nM] |
| --- | --- | --- | --- |
| COc1ccc(N(C(=O)CCl)C(C(=O)NCCc2ccccc2)c2cccs2)cc1Cl (stereo not drawn) | 725 | 323 | 699 |
| CC(C)(C)OC(=O)NCCOCCOCCOc1ccc(N(C(=O)CCl)C(C(=O)NCCc2ccccc2)c2cccs2)cc1Cl (stereo not drawn) | 515 | 564 | 946 |
| COC(=O)c1ccc([C@@H]2c3[nH]c4ccccc4c3C[C@@H](C(=O)OC)N2C(=O)CCl)cc1 | 512 | 609 | 602 |
| CCC(=O)N(c1ccc(OC)c(Cl)c1)C(C(=O)NCCc1ccccc1)c1cccs1 (stereo not drawn) |  | > 70000 |  |
| C#CCCCC(=O)NCCOCCOCCOc1ccc(N(C(=O)CCl)C(C(=O)NCCc2ccccc2)c2cccs2)cc1Cl (stereo not drawn) | 6100 | 3100 | 4790 |
